The text below walks through data of ChEMBL document CHEMBL1134124, “Isoindolines: a new series of potent and selective endothelin-A receptor antagonists” (Bioorg Med Chem Lett, 2001).

Structures are written as SMILES. Some results are limits rather than exact numbers.

Assay [1] concerns the target T1, Endothelin-1 receptor (Homo sapiens, UniProt P25101).
T1 sequence (P25101 whole entry): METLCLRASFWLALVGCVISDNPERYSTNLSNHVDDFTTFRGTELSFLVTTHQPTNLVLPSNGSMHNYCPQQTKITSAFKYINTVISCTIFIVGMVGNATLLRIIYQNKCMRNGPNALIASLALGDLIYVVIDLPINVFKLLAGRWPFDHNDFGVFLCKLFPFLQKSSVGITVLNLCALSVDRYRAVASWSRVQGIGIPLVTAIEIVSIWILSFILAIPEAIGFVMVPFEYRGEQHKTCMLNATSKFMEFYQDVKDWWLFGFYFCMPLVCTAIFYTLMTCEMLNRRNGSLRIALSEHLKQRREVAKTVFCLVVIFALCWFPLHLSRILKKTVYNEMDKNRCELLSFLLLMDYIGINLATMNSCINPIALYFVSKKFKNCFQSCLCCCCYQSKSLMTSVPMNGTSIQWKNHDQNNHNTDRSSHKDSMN
The assay is described as follows: In vitro inhibition of [125I]ET1 binding to CHO cells expressing recombinant human Endothelin A receptor. The assay is classed as cell-based.

The target of assay [2] is T2, Endothelin receptor type B (Homo sapiens) (UniProt P24530).
T2 sequence (whole entry): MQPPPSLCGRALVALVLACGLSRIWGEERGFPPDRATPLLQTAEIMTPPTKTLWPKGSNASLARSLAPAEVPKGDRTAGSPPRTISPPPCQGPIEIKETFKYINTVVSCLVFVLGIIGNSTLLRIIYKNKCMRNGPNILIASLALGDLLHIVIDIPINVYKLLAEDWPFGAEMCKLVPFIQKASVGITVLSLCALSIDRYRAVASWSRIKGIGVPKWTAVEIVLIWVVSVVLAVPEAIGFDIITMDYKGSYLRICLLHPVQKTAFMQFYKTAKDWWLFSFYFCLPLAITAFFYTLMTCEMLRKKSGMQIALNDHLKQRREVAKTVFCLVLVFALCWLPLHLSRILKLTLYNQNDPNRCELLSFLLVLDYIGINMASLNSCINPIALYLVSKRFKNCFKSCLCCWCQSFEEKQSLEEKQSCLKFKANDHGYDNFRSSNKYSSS
Briefly: Inhibition of [125I]ET1 binding to CHO cells expressing human Endothelin B receptor at a concentration of 1 uM. It counts as cell-based.

The target in assay [3] is T1, Endothelin-1 receptor. Briefly: Tested for in vitro inhibition of [125I]ET1 binding to CHO cells expressing human Endothelin A receptor. The assay is classed as cell-based.
Assay [4] addresses T3, Endothelin receptor type B (Homo sapiens, UniProt P24530).
T3 sequence (P24530 whole entry): T2 sequence (whole entry)
The assay is described as follows: Inhibition of [125I]-ET-1 binding to CHO cells expressing human Endothelin B receptor […]. It counts as cell-based.

For the next assay, the species on record is Rattus norvegicus. The assay is described as follows: Tested for antagonising activity against ET-1 induced contraction of rat aorta. The assay is classed as functional.

Take `CCOc1ccc2c(c1)[C@H](c1ccc(OC)cc1OCc1nnn[nH]1)N(CC(=O)O)[C@@H]2c1ccc2c(c1)OCO2`: the IC50 on Endothelin-1 receptor [1] was above 1000 nM.

For `CCOc1ccc2c(c1)[C@@H](c1ccc(OC)cc1OCc1nnn[nH]1)N(CC(=O)O)[C@@H]2c1ccc2c(c1)OCO2`, the 50% inhibitory concentration (IC50) on Endothelin-1 receptor [1] came to 29 nM.

Consider `CCOc1ccc2c(c1)[C@H](c1cccc(OC)c1OCC(=O)O)N(CC(=O)O)[C@@H]2c1ccc2c(c1)OCO2`, for which, in assay [2], the inhibition amounted to 31%. Further, the 50% inhibitory concentration (IC50) at Endothelin-1 receptor [1] worked out at 110 nM.

Consider `CCCOc1ccc2c(c1)[C@@H](c1ccc(OC)cc1)N(CC(=O)O)[C@@H]2c1ccc2c(c1)OCO2`, for which the IC50 on Endothelin-1 receptor [1] worked out at 120 nM.

`CCOc1ccc2c(c1)[C@H](c1ccc(OC)cc1OCC(=O)O)N(CC(=O)O)[C@@H]2c1ccc2c(c1)OCO2` gave an inhibition in assay [2] of 52%. For the same compound, the IC50 on Endothelin-1 receptor [1] is 4.1 nM.

As for `CCOc1ccc2c(c1)[C@H](c1ccc(OC)c(OC)c1OCC(=O)O)N(CC(=O)O)[C@@H]2c1ccc2c(c1)OCO2`, in assay [2], the inhibition worked out at 27%. In addition, the IC50 at Endothelin-1 receptor [1] was found to be 96 nM.

In assay [2], `CCOc1ccc2c(c1)[C@@H](c1cc(OC)c(OC)c(OC)c1OCC(=O)O)N(CC(=O)O)[C@@H]2c1ccc2c(c1)OCO2` came in with an inhibition of 1%. Moreover, the half-inhibitory concentration (IC50) at Endothelin-1 receptor [1] came to 310 nM.

The compound `CCOc1ccc2c(c1)[C@H](c1ccc(OC)cc1O)N(CC(=O)O)[C@@H]2c1ccc2c(c1)OCO2` registered an inhibition in assay [2] of 13%. Further, at Endothelin-1 receptor [1], the IC50 came to 58 nM.

With `CCOc1ccc2c(c1)[C@H](c1ccc(OC)cc1OCC(C)(C)C(=O)O)N(CC(=O)O)[C@@H]2c1ccc2c(c1)OCO2`, the inhibition in assay [2] was determined as 34%. Besides, the IC50 on Endothelin-1 receptor [1] came to 14 nM.

In the case of `CCCOc1ccc2c(c1)[C@H](c1ccc(OC)cc1OCC(=O)O)[C@@H](C(=O)O)[C@@H]2c1ccc2c(c1)OCO2`, the inhibition constant Ki at Endothelin-1 receptor [3] worked out at 0.43 nM; in assay [4] it was 14.7 nM.

Compound `CCOc1ccc2c(c1)[C@@H](c1ccc(OC)cc1O)N(CC(=O)O)[C@@H]2c1ccc2c(c1)OCO2` had an inhibition in assay [2] of 4%. In addition, the IC50 at Endothelin-1 receptor [1] was 77 nM.

Compound `CCOc1ccc2c(c1)[C@H](c1cc(OC)c(OC)c(OC)c1)N(CC(=O)O)[C@@H]2c1ccc2c(c1)OCO2` yielded an inhibition in assay [2] of 15%.

Take `CCOc1ccc2c(c1)[C@H](c1cc(OC)c(OC)c(OC)c1)N(c1nn[nH]n1)[C@@H]2c1ccc2c(c1)OCO2`: the inhibition in assay [2] was determined as 0%. Besides, on Endothelin-1 receptor [1], the 50% inhibitory concentration (IC50) was above 10000 nM.

In assay [2], `CCOc1ccc2c(c1)[C@H](c1ccc(OC)cc1OCc1nn[nH]n1)N(CC(=O)O)[C@@H]2c1ccc2c(c1)OCO2` came in with an inhibition of 37%.

In turn, `CCCOc1ccc2c(c1)[C@@H](c1ccc(OC)cc1)N(CC(=O)O)[C@@H]2c1ccc(OC)cc1OCC(=O)O` registered an inhibition in assay [2] of 0%. In addition, on Endothelin-1 receptor [1], the IC50 is above 10000 nM.

Turning to `CCOc1ccc2c(c1)[C@@H](c1ccc(OC)cc1OCCO)N(CC(=O)O)[C@@H]2c1ccc2c(c1)OCO2`, the inhibition in assay [2] came out at 6%. Further, the IC50 on Endothelin-1 receptor [1] is above 10000 nM.

On to `CCOc1ccc2c(c1)[C@@H](c1ccc(OC)cc1)N(CC(=O)O)[C@@H]2c1ccc2c(c1)OCO2`, for which, in assay [2], the inhibition came out at 9%. In addition, the concentration for half-maximal inhibition (IC50) on Endothelin-1 receptor [1] amounted to 96 nM.

As to `CCOc1ccc2c(c1)[C@@H](c1ccc(OC)cc1OCC(=O)O)N(C(=O)C(=O)O)[C@@H]2c1ccc2c(c1)OCO2`, the inhibition in assay [2] is 11%. This compound had a negative logarithm of the KB (pKB) in the assay listed under Rattus norvegicus of 7.7. Also, the IC50 on Endothelin-1 receptor [1] came to 12 nM.

`CCOc1ccc2c(c1)[C@H](c1ccc(OC)cc1OCC(=O)O)N(C(=O)C(=O)O)[C@@H]2c1ccc2c(c1)OCO2`: the inhibition in assay [2] is 0%. The half-maximal inhibitory concentration (IC50) at Endothelin-1 receptor [1] was above 10000 nM.

Turning to `COc1ccc([C@@H]2c3cc(OC)ccc3[C@@H](c3ccc4c(c3)OCO4)N2CC(=O)O)cc1`, the inhibition in assay [2] amounted to 1%. Also, the IC50 at Endothelin-1 receptor [1] amounted to 3300 nM.

On to `CCOc1ccc2c(c1)[C@@H](c1ccc(OC)cc1OCC(C)(C)C(=O)O)N(CC(=O)O)[C@@H]2c1ccc2c(c1)OCO2`, for which, in assay [2], the inhibition is 1%. For the same compound, the IC50 at Endothelin-1 receptor [1] is 68 nM.

In assay [2], `CCOc1ccc2c(c1)[C@@H](c1ccc(OC)c(OC)c1OCC(=O)O)N(CC(=O)O)[C@@H]2c1ccc2c(c1)OCO2` yielded an inhibition of 2%. At Endothelin-1 receptor [1], the IC50 is 6.1 nM.

For `CCOc1ccc2c(c1)[C@@H](c1ccc(OC)cc1OCC(=O)O)N(c1nn[nH]n1)[C@@H]2c1ccc2c(c1)OCO2`, the inhibition in assay [2] amounted to 17%. Also, at Endothelin-1 receptor [1], the IC50 was 31 nM.

In turn, `CCOc1ccc2c(c1)[C@@H](c1ccc(OC)cc1OCc1nn[nH]n1)N(CC(=O)O)[C@@H]2c1ccc2c(c1)OCO2` returned an inhibition in assay [2] of 0%.

For `CCOc1ccc2c(c1)[C@@H](c1cccc(OC)c1OCC(=O)O)N(CC(=O)O)[C@@H]2c1ccc2c(c1)OCO2`, the inhibition in assay [2] worked out at 12%. Moreover, the IC50 at Endothelin-1 receptor [1] was 85 nM.

Regarding `CCOc1ccc2c(c1)[C@@H](c1ccc(OC)cc1OCCCC(=O)O)N(CC(=O)O)[C@@H]2c1ccc2c(c1)OCO2`, the inhibition in assay [2] stood at 37%. In addition, at Endothelin-1 receptor [1], the concentration for half-maximal inhibition (IC50) was found to be 22 nM.

Take `CCOc1ccc2c(c1)[C@H](c1ccc(OC)cc1)N(CC(=O)O)[C@@H]2c1ccc2c(c1)OCO2`: the inhibition in assay [2] is 23%. Also, the IC50 at Endothelin-1 receptor [1] stood at 95 nM.

In turn, `CCOc1ccc2c(c1)[C@H](c1cc(OC)c(OC)c(OC)c1OCC(=O)O)N(CC(=O)O)[C@@H]2c1ccc2c(c1)OCO2` yielded an inhibition in assay [2] of 10%. Besides, the IC50 on Endothelin-1 receptor [1] came to 330 nM.

As for `CCCOc1ccc2c(c1)[C@H](c1ccc(OC)cc1)N(CC(=O)O)[C@@H]2c1ccc(OC)cc1OCC(=O)O`, the inhibition in assay [2] amounted to 0%. The IC50 on Endothelin-1 receptor [1] is above 10000 nM.

Regarding `CCOc1ccc2c(c1)[C@@H](c1cc(OC)c(OC)c(OC)c1)N(CC(=O)O)[C@@H]2c1ccc2c(c1)OCO2`, in assay [2], the inhibition worked out at 17%. The IC50 on Endothelin-1 receptor [1] was 66 nM.

As for `CCOc1ccc2c(c1)[C@@H](c1ccc(OC)cc1OCC(=O)O)N(CC(=O)O)[C@@H]2c1ccc2c(c1)OCO2`, in assay [2], the inhibition stood at 15%. The IC50 at Endothelin-1 receptor [1] worked out at 5.4 nM.
